# System: Rhizoctonia solani
# Assay: Limit concentration of soil-fungicidal effectiveness, Rhizoctonia solani, infested soil seeded with peas (Example 1)
# Assay type: in vivo
# Settings: soil, 480 h, 20 to 23 days, 22°-25° C, read-out: Limit concentration of the fungicidal effectiveness
# Protocol: Limit concentrations of the soil-fungicidal effectiveness at homogeneous mixture of the products with the infested soil. Basic condition in the evaluation are a sound root formation without fungus necroses and germination of the seed of at least 90% compared with the result obtained in steamed soil. Per concentration there were seeded 25 grains of peas of the variety "Miracle of Kelvedon" (marrow pea) without a waiting period. The cultivation time in the tests was 20 to 23 days at a temperature of 22°-25° C. Four commercial products were included in the test series.
# Rhizoctania solani: -- Steamed compost soil was inoculated with mycelium of Rhizoctonia solani.
row,SMILES,minimal effective concentration [µg/mL]
1,"CS(=O)(=O)c1nnc(C(F)(F)F)s1 [Compound 1, 2-trifluoromethyl-5-methylsulfonyl-1,3,4-thiadiazole]",25
2,"C[S+]([O-])c1nnc(C(Cl)Cl)s1 (stereo not drawn) [Compound 3, 2-dichloromethyl-5-methylsulfinyl-1,3,4-thiadiazole]",30
3,"CC[S+]([O-])c1nnc(C(Cl)Cl)s1 (stereo not drawn) [Compound 4, 2-dichloromethyl-5-ethylsulfinyl-1,3,4-thiadiazole]",20
4,"CCC[S+]([O-])c1nnc(C(Cl)Cl)s1 (stereo not drawn) [Compound 5, 2-dichloromethyl-5-propylsulfinyl-1,3,4-thiadiazole]",20

# System: Stemphylium ilicis
# Assay: Agar test (Example 7), Stemphylium
# Assay type: cell-based
# Settings: 10 ppm; 5 days at 22° C; control 100
# Protocol: (§1) The fungicidal action of the agents according to the invention was tested in artificial nutrient media against plant-pathogenic fungi in Petri dishes (agar test). The procedure was to sterilize the medium consisting of 2% malt extract and 1.5% agar-agar powder. Before the solidification of the medium, the active substances were added to it, mixing thoroughly, so that the medium received 10 parts of active substance per million (ppm). After the solidification of the medium, the latter was inoculated with a platinum dropper which contained 100 spores each of the fungi to be tested, and after five days at 22° C, an evaluation was made by measuring the diameter of the colonies in mm.
row,SMILES,diameter of the colonies [mm]
1,"CS(=O)(=O)c1nnc(C(F)(F)F)s1 [Compound 1, 2-trifluoromethyl-5-methylsulfonyl-1,3,4-thiadiazole]",0
2,"C[S+]([O-])c1nnc(C(Cl)Cl)s1 (stereo not drawn) [Compound 3, 2-dichloromethyl-5-methylsulfinyl-1,3,4-thiadiazole]",0

# System: Thielaviopsis basicola
# Assay: Control of Thielaviopsis basicola on tobacco (Example 10)
# Assay type: in vivo
# Parameters: key to Attack 0-5: 0: no attack; 1: very slight attack; 2: slight attack; 3: medium attack; 4: strong attack; 5: very strong attack
# Settings: 20 mg active ingr. per liter of soil; five weeks
# Protocol: Control of Thielaviopsis basicola on tobacco.
# A 10% powder preparation of 2-trifluoromethyl-5-methylsulfonyl-1,3,4-thiadiazole was homogeneously admixed to a soil heavily infested by Thielaviopsis basicola. After a reaction time of one week, tobacco seedlings of the variety Nicotiana tabacum var. "White Burley" were set out and cultivated for five weeks in the greenhouse at 22°-32° C. The attack and weight of the fresh plant are evident from the table.
SMILES,Attack 0-5,Weight of fresh plant (leaves and stems) [g],Weight of roots (air-dry) [g]
"CS(=O)(=O)c1nnc(C(F)(F)F)s1 [Compound 1, 2-trifluoromethyl-5-methylsulfonyl-1,3,4-thiadiazole]",0.5,115,11

# Same assay, conditions: 30 mg active ingr. per liter of soil; five weeks
SMILES,Attack 0-5,Weight of fresh plant (leaves and stems) [g],Weight of roots (air-dry) [g]
"CS(=O)(=O)c1nnc(C(F)(F)F)s1 [Compound 1, 2-trifluoromethyl-5-methylsulfonyl-1,3,4-thiadiazole]",0,118,11

# Same assay, conditions: 40 mg active ingr. per liter of soil; five weeks
SMILES,Attack 0-5,Weight of fresh plant (leaves and stems) [g],Weight of roots (air-dry) [g]
"CS(=O)(=O)c1nnc(C(F)(F)F)s1 [Compound 1, 2-trifluoromethyl-5-methylsulfonyl-1,3,4-thiadiazole]",0,104,9

# System: Colletotrichum gloeosporioides
# Assay: Agar test (Example 7), Colletotrichum
# Assay type: cell-based
# Settings: 10 ppm; 5 days at 22° C; control 100
# Protocol: as §1
row,SMILES,diameter of the colonies [mm]
1,"CS(=O)(=O)c1nnc(C(F)(F)F)s1 [Compound 1, 2-trifluoromethyl-5-methylsulfonyl-1,3,4-thiadiazole]",0
2,"C[S+]([O-])c1nnc(C(Cl)Cl)s1 (stereo not drawn) [Compound 3, 2-dichloromethyl-5-methylsulfinyl-1,3,4-thiadiazole]",0

# System: Asperqilus niger
# Assay: Agar test (Example 7), Aspergillus
# Assay type: cell-based
# Settings: 10 ppm; 5 days at 22° C; control 100
# Protocol: as §1
row,SMILES,diameter of the colonies [mm]
1,"CS(=O)(=O)c1nnc(C(F)(F)F)s1 [Compound 1, 2-trifluoromethyl-5-methylsulfonyl-1,3,4-thiadiazole]",0
2,"C[S+]([O-])c1nnc(C(Cl)Cl)s1 (stereo not drawn) [Compound 3, 2-dichloromethyl-5-methylsulfinyl-1,3,4-thiadiazole]",50

# System: Botrytis cinerea
# Assay: Agar test (Example 7), Botrytis
# Assay type: cell-based
# Settings: 10 ppm; 5 days at 22° C; control 100
# Protocol: as §1
row,SMILES,diameter of the colonies [mm]
1,"CS(=O)(=O)c1nnc(C(F)(F)F)s1 [Compound 1, 2-trifluoromethyl-5-methylsulfonyl-1,3,4-thiadiazole]",0
2,"C[S+]([O-])c1nnc(C(Cl)Cl)s1 (stereo not drawn) [Compound 3, 2-dichloromethyl-5-methylsulfinyl-1,3,4-thiadiazole]",36

# System: Rhizoctonia solani
# Assay: Rhizoctonia solani infested compost soil, marrow peas (Example 3)
# Assay type: in vivo
# Settings: 10 mg active ingr. per liter of soil; 3 weeks
# Excerpt: Steamed compost soil was inoculated with mycelium of Rhizoctonia solani. After homogeneous mixture of the products with the infested soil, the products were present in the form of 20% powder preparations, the seeding of 25 grains of marrow peas of the variety "Miracle of Kelvedon" per concentration was effected without waiting period in clay dishes holding 1 liter of soil. The table lists the number of germinated sound peas, the weight of the fresh plant, and a root evaluation after a cultivation period of three weeks at 22°-25° C.
row,SMILES,Weight of fresh plant [g]
1,"C[S+]([O-])c1nnc(C(Cl)Cl)s1 (stereo not drawn) [Compound 3, 2-dichloromethyl-5-methylsulfinyl-1,3,4-thiadiazole]",0

# Same assay, conditions: 10 mg active ingr. per liter of soil; of 25 grains
row,SMILES,Number of sound peas after 3 wks.
1,"C[S+]([O-])c1nnc(C(Cl)Cl)s1 (stereo not drawn) [Compound 3, 2-dichloromethyl-5-methylsulfinyl-1,3,4-thiadiazole]",0

# Same assay, conditions: 20 mg active ingr. per liter of soil; 3 weeks
row,SMILES,Weight of fresh plant [g]
1,"C[S+]([O-])c1nnc(C(Cl)Cl)s1 (stereo not drawn) [Compound 3, 2-dichloromethyl-5-methylsulfinyl-1,3,4-thiadiazole]",2

# Same assay, conditions: 20 mg active ingr. per liter of soil; of 25 grains
row,SMILES,Number of sound peas after 3 wks.
1,"C[S+]([O-])c1nnc(C(Cl)Cl)s1 (stereo not drawn) [Compound 3, 2-dichloromethyl-5-methylsulfinyl-1,3,4-thiadiazole]",2

# Same assay, conditions: 30 mg active ingr. per liter of soil; 3 weeks
row,SMILES,Weight of fresh plant [g]
1,"C[S+]([O-])c1nnc(C(Cl)Cl)s1 (stereo not drawn) [Compound 3, 2-dichloromethyl-5-methylsulfinyl-1,3,4-thiadiazole]",21

# Same assay, conditions: 30 mg active ingr. per liter of soil; of 25 grains
row,SMILES,Number of sound peas after 3 wks.
1,"C[S+]([O-])c1nnc(C(Cl)Cl)s1 (stereo not drawn) [Compound 3, 2-dichloromethyl-5-methylsulfinyl-1,3,4-thiadiazole]",22

# System: Helminthosporium sativum
# Assay: Agar test (Example 7), Helminthosporium
# Assay type: cell-based
# Settings: 10 ppm; 5 days at 22° C; control 100
# Protocol: as §1
row,SMILES,diameter of the colonies [mm]
1,"CS(=O)(=O)c1nnc(C(F)(F)F)s1 [Compound 1, 2-trifluoromethyl-5-methylsulfonyl-1,3,4-thiadiazole]",0
2,"C[S+]([O-])c1nnc(C(Cl)Cl)s1 (stereo not drawn) [Compound 3, 2-dichloromethyl-5-methylsulfinyl-1,3,4-thiadiazole]",0

# System: Meloidogyne incognita
# Assay: Nematocidal action, infested compost soil, cucumber seeds (Example 8)
# Assay type: in vivo
# Settings: 40 mg per liter of soil; 30 days
# Protocol: The products as 20% powder preparations were homogeneously admixed with a compost soil heavily infested by root gal nematodes. Without a waiting period, 20 cucumber seeds per concentration were seeded. After a cultivation time of 30 days at a temperature of 23°-25° C, the nematocidal action was evaluated by counting the root galls formed in the waterbath. The following table states the reduction of attack in percent. In the control, an average of 90 root galls per seedling had formed.
row,SMILES,Nematocidal action in % (reduction of attack) [%]
1,"C[S+]([O-])c1nnc(C(Cl)Cl)s1 (stereo not drawn) [Compound 3, 2-dichloromethyl-5-methylsulfinyl-1,3,4-thiadiazole]",100
2,"CC[S+]([O-])c1nnc(C(Cl)Cl)s1 (stereo not drawn) [Compound 4, 2-dichloromethyl-5-ethylsulfinyl-1,3,4-thiadiazole]",96
3,"CCC[S+]([O-])c1nnc(C(Cl)Cl)s1 (stereo not drawn) [Compound 5, 2-dichloromethyl-5-propylsulfinyl-1,3,4-thiadiazole]",90

# Same assay, conditions: 60 mg per liter of soil; 30 days
row,SMILES,Nematocidal action in % (reduction of attack) [%]
1,"C[S+]([O-])c1nnc(C(Cl)Cl)s1 (stereo not drawn) [Compound 3, 2-dichloromethyl-5-methylsulfinyl-1,3,4-thiadiazole]",100
2,"CC[S+]([O-])c1nnc(C(Cl)Cl)s1 (stereo not drawn) [Compound 4, 2-dichloromethyl-5-ethylsulfinyl-1,3,4-thiadiazole]",99
3,"CCC[S+]([O-])c1nnc(C(Cl)Cl)s1 (stereo not drawn) [Compound 5, 2-dichloromethyl-5-propylsulfinyl-1,3,4-thiadiazole]",98

# System: Pythium ultimum
# Assay: Pythium ultimum infested compost soil, marrow peas (Example 2)
# Assay type: in vivo
# Settings: 10 mg active ingr. per liter of soil; 3 weeks
# Excerpt: Steamed compost soil was inoculated with mycelium of Pythium ultimum.
row,SMILES,Weight of fresh plant [g]
1,"CS(=O)(=O)c1nnc(C(F)(F)F)s1 [Compound 1, 2-trifluoromethyl-5-methylsulfonyl-1,3,4-thiadiazole]",20
2,"C[S+]([O-])c1nnc(C(Cl)Cl)s1 (stereo not drawn) [Compound 3, 2-dichloromethyl-5-methylsulfinyl-1,3,4-thiadiazole]",22

# Same assay, conditions: 10 mg active ingr. per liter of soil; of 25 grains
row,SMILES,Number of sound peas after 3 wks.
1,"CS(=O)(=O)c1nnc(C(F)(F)F)s1 [Compound 1, 2-trifluoromethyl-5-methylsulfonyl-1,3,4-thiadiazole]",25
2,"C[S+]([O-])c1nnc(C(Cl)Cl)s1 (stereo not drawn) [Compound 3, 2-dichloromethyl-5-methylsulfinyl-1,3,4-thiadiazole]",24

# Same assay, conditions: 20 mg active ingr. per liter of soil; 3 weeks
row,SMILES,Weight of fresh plant [g]
1,"CS(=O)(=O)c1nnc(C(F)(F)F)s1 [Compound 1, 2-trifluoromethyl-5-methylsulfonyl-1,3,4-thiadiazole]",19
2,"C[S+]([O-])c1nnc(C(Cl)Cl)s1 (stereo not drawn) [Compound 3, 2-dichloromethyl-5-methylsulfinyl-1,3,4-thiadiazole]",24

# Same assay, conditions: 20 mg active ingr. per liter of soil; of 25 grains
row,SMILES,Number of sound peas after 3 wks.
1,"CS(=O)(=O)c1nnc(C(F)(F)F)s1 [Compound 1, 2-trifluoromethyl-5-methylsulfonyl-1,3,4-thiadiazole]",22
2,"C[S+]([O-])c1nnc(C(Cl)Cl)s1 (stereo not drawn) [Compound 3, 2-dichloromethyl-5-methylsulfinyl-1,3,4-thiadiazole]",24

# Same assay, conditions: 30 mg active ingr. per liter of soil; 3 weeks
row,SMILES,Weight of fresh plant [g]
1,"CS(=O)(=O)c1nnc(C(F)(F)F)s1 [Compound 1, 2-trifluoromethyl-5-methylsulfonyl-1,3,4-thiadiazole]",19
2,"C[S+]([O-])c1nnc(C(Cl)Cl)s1 (stereo not drawn) [Compound 3, 2-dichloromethyl-5-methylsulfinyl-1,3,4-thiadiazole]",22

# Same assay, conditions: 30 mg active ingr. per liter of soil; of 25 grains
row,SMILES,Number of sound peas after 3 wks.
1,"CS(=O)(=O)c1nnc(C(F)(F)F)s1 [Compound 1, 2-trifluoromethyl-5-methylsulfonyl-1,3,4-thiadiazole]",23
2,"C[S+]([O-])c1nnc(C(Cl)Cl)s1 (stereo not drawn) [Compound 3, 2-dichloromethyl-5-methylsulfinyl-1,3,4-thiadiazole]",25

# System: Fusarium oxysporum f. callistephi
# Assay: Fusarium infested compost soil, Callistephus chinesis seedlings (Example 5)
# Assay type: in vivo
# Settings: 50 mg active ingredient per liter of soil; of 4 seedlings
# Excerpt: Steamed compost soil was inoculated with a spore suspension of Fusarium oxysporum f. callistephi. After homogeneous mixture of the products with the infested soil, the products were present as 20% powder preparations, and after a waiting period of 8 days, there were set out per concentration 4 seedlings of Callistephus chinesis, master aster "Sun Ray" as host plants.
row,SMILES,Number of attacked plants after 3 weeks
1,"C[S+]([O-])c1nnc(C(Cl)Cl)s1 (stereo not drawn) [Compound 3, 2-dichloromethyl-5-methylsulfinyl-1,3,4-thiadiazole]",0

# Same assay, conditions: 100 mg active ingredient per liter of soil; of 4 seedlings
row,SMILES,Number of attacked plants after 3 weeks
1,"C[S+]([O-])c1nnc(C(Cl)Cl)s1 (stereo not drawn) [Compound 3, 2-dichloromethyl-5-methylsulfinyl-1,3,4-thiadiazole]",0

# System: Damping-off Fungi
# Assay: Cotton seed disinfection, normal compost soil (Example 6)
# Assay type: in vivo
# Settings: 100 mg active ingr. per kg of seed; 10% formulation; 15 days
# Protocol: Cotton seeds disinfected with 10% formulations were seeded in normal compost soil (Damping-off Fungi), 25 grains per concentration. After a cultivation time of 15 days at 22°-25° C, the number of germinated sound cotton seedlings and their weight as fresh plants were determined.
SMILES,Sound plants in % [%],Weight of fresh plant [g]
"C[S+]([O-])c1nnc(C(Cl)Cl)s1 (stereo not drawn) [Compound 3, 2-dichloromethyl-5-methylsulfinyl-1,3,4-thiadiazole]",100,29
